# Article PMC8421423, “Cellular model system to dissect the isoform-selectivity of Akt inhibitors” (Nature Communications, 2021)
# Several values for one entry are separate records, joined by “and”; a condition that tells them apart may be missing. Equal values may be shown once. Read-outs that look alike come from different tables or passages of the source.
# Key:
# Akt2 [1] = biological target: T1, Akt2 (Homo sapiens, UniProt P31751); assay: STK HTRF KinEASE activity-based assay (IC50)
# pAkt2 = assay: Western blot analysis, PANC1 cells; type: cell-based, human; settings: PANC1, 24-h treatment
# Method: Cells were seeded into six-well tissue culture plates (Sarstedt) (BaF3 myr-Akt1/2/3: 10^6 cells/well, PANC1: 250.000 cells/well). […] Cell lysis was initiated by addition of 100 μL RIPA buffer (Cell Signaling Technology) per well supplemented with phosphatase and protease inhibitor cocktails (Sigma) followed by incubation on ice for 20 min. Cells were then harvested by scraping (PANC1) or centrifugation (BaF3). Whole cell lysates were cleared by centrifugation at 14,000×g/4 °C for 10 min and transferred into fresh, pre-cooled microcentrifuge tubes. Protein concentrations were determined using the Pierce BCA protein assay (Thermo) as per manufacturer’s instructions. Equal amounts of protein were separated by SDS-PAGE and transferred to Immobilon-FL PVDF membranes (Merck Millipore) using Pierce™ 1-step transfer buffer (Thermo) and the Pierce™ Power Blotter (Thermo). Membranes were washed for 5 min with ddH2O, blocked with Intercept®Blocking Buffer TBS (Li-Cor) for 1 h at room temperature, and then incubated with primary antibodies diluted in Intercept®Blocking Buffer TBS overnight at 4 °C with gentle agitation. On the next day, the membranes were washed three times with TBS-T (50 mM Tris, 150 mM NaCl, 0.05 % Tween 20, pH 7.4) for 5 min before being incubated with secondary antibodies diluted in Intercept®Blocking Buffer TBS for 1 h at room temperature with gentle agitation. Finally, the membranes were washed three times for 5 min with TBS-T and then scanned using an Odyssey®CLx imaging system (Li-Cor).
# Ba/F3^myr-Akt2 cells = assay: CellTiter-Glo cell viability assay; settings: for cell viability: CTG
# Akt1 [2] = biological target: T2, Akt1 (Homo sapiens, UniProt P31749); assay: STK HTRF KinEASE activity-based assay (IC50)
# T2 sequence (P31749 whole entry): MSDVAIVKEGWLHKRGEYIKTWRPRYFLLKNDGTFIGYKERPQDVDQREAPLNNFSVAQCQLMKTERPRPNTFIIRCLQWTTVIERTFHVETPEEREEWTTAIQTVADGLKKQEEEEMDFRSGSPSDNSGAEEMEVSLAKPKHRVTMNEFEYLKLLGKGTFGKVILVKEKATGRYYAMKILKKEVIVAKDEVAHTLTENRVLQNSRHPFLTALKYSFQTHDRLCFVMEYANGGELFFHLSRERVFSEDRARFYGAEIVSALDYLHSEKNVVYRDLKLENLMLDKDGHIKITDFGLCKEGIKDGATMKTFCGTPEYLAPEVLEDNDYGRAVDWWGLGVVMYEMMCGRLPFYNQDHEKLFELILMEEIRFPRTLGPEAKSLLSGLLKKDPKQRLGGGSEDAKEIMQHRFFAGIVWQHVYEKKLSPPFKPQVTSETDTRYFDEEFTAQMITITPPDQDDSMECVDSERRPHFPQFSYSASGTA
# Method: (§1) The biochemical half maximal inhibitory concentrations (IC50) were determined with the STK HTRF KinEASE assay (Cisbio) according to the manufactor’s instructions. Briefly: 5 µL Kinase solution and 2.5 µL inhibitor solution (8% DMSO in HTRF buffer) were incubated for 1 h before the reaction was started by addition of 2.5 µL starting solution containing ATP and substrate peptide. […] After reaction completion (Akt1: 60 min, Akt2: 20 min, Akt3: 15 min), 10 µL of stop solution were added. […] The quotient of both intensities were recorded at eight different inhibitor concentrations and data fit to a Hill 4-parameter equation with Quattro software suite (Quattro Research GmbH, Martinsried, Germany). Each reaction was performed in duplicates and at least three independent determinations of each IC50 were made.
# Ba/F3^myr-Akt1 cells = assay: CellTiter-Glo cell viability assay; settings: for cell viability: CTG
# Akt3 [3] = biological target: T3, Akt3 (Homo sapiens, UniProt Q9Y243); assay: Cellular thermal shift assay (CETSA) in PANC1 cells; type: cell-based; set-up: purchased ProQinase #1578-0000-1; settings: CETSA PANC1, 1 µM
# T3 sequence (Q9Y243 whole entry): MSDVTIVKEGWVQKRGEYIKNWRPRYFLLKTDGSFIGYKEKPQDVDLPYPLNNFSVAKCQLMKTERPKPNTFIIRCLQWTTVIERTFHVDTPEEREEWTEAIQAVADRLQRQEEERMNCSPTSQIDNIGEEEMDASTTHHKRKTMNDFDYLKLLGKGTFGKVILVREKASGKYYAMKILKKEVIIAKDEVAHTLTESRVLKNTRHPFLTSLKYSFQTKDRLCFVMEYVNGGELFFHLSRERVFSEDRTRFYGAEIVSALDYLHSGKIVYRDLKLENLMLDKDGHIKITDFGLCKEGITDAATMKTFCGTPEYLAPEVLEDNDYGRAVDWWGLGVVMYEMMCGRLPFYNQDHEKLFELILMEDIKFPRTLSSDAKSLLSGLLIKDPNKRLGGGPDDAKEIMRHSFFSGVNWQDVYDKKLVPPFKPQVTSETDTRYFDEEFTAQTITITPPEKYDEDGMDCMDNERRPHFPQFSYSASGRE
# Method: (§2) Cells were seeded into 100 mm tissue culture plates (Sarstedt) (PANC1: 10^6 cells). After 24 h incubation, cells were treated with 1 µM of inhibitors or DMSO and were incubated for 4.5 h. Cells were washed twice with ice-cold PBS and then suspended in 1 mL PBS. Cells were collected and separated into equal volumes (100 µL). The aliquots were treated individually with different temperatures for 3 min, followed by a 3 min incubation at room temperature. Cell lysis was initiated by adding 100 µL RIPA buffer and 2 freeze-thaw cycles in liquid nitrogen. The lysates were centrifuged at 21,130×g for 20 min at room temperature. The supernatants were transferred into fresh, pre-cooled microcentrifuge tubes, and analyzed by western blot analysis as described above.
# Akt1 [4] = biological target: T2, Akt1; assay: as above; type: cell-based; set-up: purchased ProQinase #1379-0000-2; settings: CETSA PANC1, 1 µM
# Method: as §2
# [5] = CellTiter-Glo cell viability assay; type: cell-based, murine; settings: mouse, parental Ba/F3 cells, CTG, parental, single replicates
# Method: (§3) On day 0, cells were plated into white 384-well cell culture plates (Greiner Bio-One) using a Multidrop reagent dispenser (Thermo Fisher Scientific) at cell numbers that ensure linear and optimal luminescent signal intensity (Ba/F3myr-Akt1: 600 cells/well, Ba/F3myr-Akt2: 800 cells/well, Ba/F3myr-Akt3: 800 cells/well). […] Cell viability was analyzed on day 4 using the CellTiter-Glo Assay (Promega) as per the manufacturer’s instructions. […] All experimental points were measured in duplicates for each plate and were replicated in at least three plates.
# parental Ba/F3 cells = assay: CellTiter-Glo cell viability assay; type: cell-based, murine; settings: for cell viability: CTG, parental
# Method: as §3
# Akt3 [6] = biological target: T3, Akt3; assay: STK HTRF KinEASE activity-based assay (IC50)
# Method: as §1
# Akt2 [7] = biological target: T1, Akt2; assay: Cellular thermal shift assay (CETSA) in PANC1 cells; type: cell-based; set-up: purchased Thermo Fisher Scientific #PV3184; settings: for tAkt2 %: CETSA PANC1, 1 µM
# Method: as §2
# Ba/F3^myr-Akt3 cells = assay: CellTiter-Glo cell viability assay; settings: for cell viability: CTG
# [8] = cell viability assay Ba/F3 myr-Akt cells, log units
# T1 sequence (P31751 whole entry): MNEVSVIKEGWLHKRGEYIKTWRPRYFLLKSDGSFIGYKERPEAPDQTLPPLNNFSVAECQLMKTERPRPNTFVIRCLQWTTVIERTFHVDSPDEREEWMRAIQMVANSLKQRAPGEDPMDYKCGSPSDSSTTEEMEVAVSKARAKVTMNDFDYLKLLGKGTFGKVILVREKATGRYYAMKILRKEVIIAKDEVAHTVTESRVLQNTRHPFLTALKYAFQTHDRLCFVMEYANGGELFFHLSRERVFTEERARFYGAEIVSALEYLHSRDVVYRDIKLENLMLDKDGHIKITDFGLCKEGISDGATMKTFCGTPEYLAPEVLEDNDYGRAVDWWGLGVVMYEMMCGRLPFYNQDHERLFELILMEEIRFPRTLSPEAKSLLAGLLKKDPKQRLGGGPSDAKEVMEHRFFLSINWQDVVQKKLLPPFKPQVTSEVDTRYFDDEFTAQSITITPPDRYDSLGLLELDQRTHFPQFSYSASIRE
structure (smiles),measurement,setting,value
C=CC(=O)Nc1ccc2[nH]c(=O)n(C3CCN(Cc4ccc(-c5ncc(Cc6cn[nH]c6)cc5-c5ccccc5)cc4)CC3)c2c1 [compound 14],IC50,"Akt2 [1]; HTRF IC50 Akt2, Mean, mean of replicates",23.9 nM
same,IC50,"Akt2 [1]; HTRF IC50 Akt2, individual determinations, single replicates",21.3 nM and 30 nM and 19.2 nM and 20.5 nM
same,IC50,"Akt2 [1]; IC50 Akt2, HTRF, ATP at KM, 1 h preincubation",23 ± 4 nM
same,pAkt2 level (immunoblot),pAkt2,efficient downregulation of Akt2 phosphorylation
same,cell viability,"Ba/F3^myr-Akt2 cells; myr-Akt2, 0.1 nM, single replicates, 0.0001 µM",101.1 % of control and 98.7 % of control
same,cell viability,"Ba/F3^myr-Akt2 cells; myr-Akt2, 5000 nM, single replicates, 5 µM",0.2 % of control and 0.55 % of control and 2.5 % of control
same,EC50,"Ba/F3^myr-Akt2 cells; Mus musculus, read-out: CTG BaF3myr-Akt2, Mean, mean of replicates",529 nM
same,viability at 0.0001 µM,"Ba/F3^myr-Akt2 cells; Mus musculus, read-out: cell viability, CTG, myr-Akt2, 0.1 nM, single replicates",104%
same,EC50,"Ba/F3^myr-Akt2 cells; read-out: CTG BaF3myr-Akt2, individual determinations, single replicates",932 nM and 277 nM and 378 nM
same,IC50,"Akt1 [2]; HTRF IC50 Akt1, Mean, mean of replicates",527 nM
same,IC50,"Akt1 [2]; HTRF IC50 Akt1, individual determinations, single replicates",543 nM and 509 nM and 531 nM
same,IC50,"Akt1 [2]; IC50 Akt1, HTRF, ATP at KM, 1 h preincubation",527 ± 14 nM
same,"Log ratio IC50 [Akt] / IC50 [Akt], Akt1 / Akt2","Akt1 [2]; biochemical activity based assay, log units",1.35
same,cell viability,"Ba/F3^myr-Akt1 cells; myr-Akt1, 0.1 nM, single replicates, 0.0001 µM",103.7 % of control and 102.7 % of control
same,cell viability,"Ba/F3^myr-Akt1 cells; myr-Akt1, 5000 nM, single replicates, 5 µM",79.7 % of control and 82.2 % of control
same,EC50,"Ba/F3^myr-Akt1 cells; Mus musculus, read-out: CTG BaF3myr-Akt1, Mean, mean of replicates",7560 nM
same,EC50,"Ba/F3^myr-Akt1 cells; Mus musculus, read-out: CTG BaF3myr-Akt1, individual determinations, single replicates",6920 nM
same,viability at 0.0001 µM,"Ba/F3^myr-Akt1 cells; Mus musculus, read-out: cell viability, CTG, myr-Akt1, 0.1 nM, single replicates",100%
same,viability at 5 µM,"Ba/F3^myr-Akt1 cells; Mus musculus, read-out: cell viability, CTG, myr-Akt1, 5000 nM, single replicates",71.9%
same,"Log ratio EC50 [Akt] / EC50 [Akt], Akt1 / Akt2",Ba/F3^myr-Akt1 cells; [8],1.15
same,EC50,"Ba/F3^myr-Akt1 cells; read-out: CTG BaF3myr-Akt1, individual determinations, single replicates",7890 nM and 7860 nM
same,tAkt3 %,Akt3 [3]; temperature 39.9,100.00%
same,tAkt3 %,Akt3 [3]; temperature 43.5,108.88%
same,tAkt3 %,Akt3 [3]; temperature 48.4,31.40%
same,tAkt3 %,Akt3 [3]; temperature 53.8,28.60%
same,tAkt3 %,Akt3 [3]; temperature 58.1,24.86%
same,tAkt3 %,Akt3 [3]; temperature 61.4,22.71%
same,tAkt3 %,Akt3 [3]; temperature 65.6,8.41%
same,tAkt3 %,Akt3 [3]; temperature 70.9,4.62%
same,tAkt3 %,Akt3 [3]; temperature 76,1.45%
same,tAkt3 %,Akt3 [3]; temperature 79.9,0.00%
same,tAkt1 %,Akt1 [4]; temperature 39.9,100.00%
same,tAkt1 %,Akt1 [4]; temperature 43.5,52.07%
same,tAkt1 %,Akt1 [4]; temperature 48.4,40.09%
same,tAkt1 %,Akt1 [4]; temperature 53.8,35.60%
same,tAkt1 %,Akt1 [4]; temperature 58.1,20.87%
same,tAkt1 %,Akt1 [4]; temperature 61.4,22.87%
same,tAkt1 %,Akt1 [4]; temperature 65.6,16.43%
same,tAkt1 %,Akt1 [4]; temperature 70.9,3.87%
same,tAkt1 %,Akt1 [4]; temperature 76,1.25%
same,tAkt1 %,Akt1 [4]; temperature 79.9,0.00%
same,"viability at 3 days, 0.0001 µM","[5]; 0.1 nM, read-out: cell viability",101%
same,"viability at 3 days, 5 µM",[5]; 5000 nM,105%
same,cell viability,"parental Ba/F3 cells; 0.1 nM, single replicates, 0.0001 µM",100.0 % of control and 99.0 % of control
same,cell viability,"parental Ba/F3 cells; 5000 nM, single replicates, 5 µM",99.0 % of control and 97.0 % of control
same,EC50,"parental Ba/F3 cells; Mus musculus, BaF3, parental cells, mean of replicates, read-out: CTG BaF3, Mean",8640 nM
same,EC50,"parental Ba/F3 cells; Mus musculus, BaF3, parental cells, single replicates, read-out: CTG BaF3, individual determinations",8400 nM
same,EC50,"parental Ba/F3 cells; parental cells, single replicates, read-out: CTG BaF3, individual determinations",7670 nM and 9860 nM
same,IC50,"Akt3 [6]; HTRF IC50 Akt3, Mean, mean of replicates",356 nM
same,IC50,"Akt3 [6]; HTRF IC50 Akt3, individual determinations, single replicates",231 nM and 426 nM and 410 nM
same,IC50,"Akt3 [6]; IC50 Akt3, HTRF, ATP at KM, 1 h preincubation",356 ± 88 nM
same,tAkt2 %,Akt2 [7]; temperature 39.9,100.00%
same,tAkt2 %,Akt2 [7]; temperature 43.5,102.39%
same,tAkt2 %,Akt2 [7]; temperature 48.4,91.99%
same,tAkt2 %,Akt2 [7]; temperature 53.8,80.16%
same,tAkt2 %,Akt2 [7]; temperature 58.1,72.88%
same,tAkt2 %,Akt2 [7]; temperature 61.4,43.24%
same,tAkt2 %,Akt2 [7]; temperature 65.6,13.13%
same,tAkt2 %,Akt2 [7]; temperature 70.9,8.83%
same,tAkt2 %,Akt2 [7]; temperature 76,2.38%
same,tAkt2 %,Akt2 [7]; temperature 79.9,0.00%
same,"thermal stabilization of Akt2 (CETSA, in words)","Akt2 [7]; PANC1, 1 µM",significant thermal stabilization of Akt2
same,cell viability,"Ba/F3^myr-Akt3 cells; myr-Akt3, 0.1 nM, single replicates, 0.0001 µM",114.7 % of control and 87.0 % of control and 100.0 % of control
same,cell viability,"Ba/F3^myr-Akt3 cells; myr-Akt3, 5000 nM, single replicates, 5 µM",35.1 % of control and 52.3 % of control and 67.7 % of control
same,EC50,"Ba/F3^myr-Akt3 cells; Mus musculus, read-out: CTG BaF3myr-Akt3, Mean, mean of replicates",4470 nM
same,EC50,"Ba/F3^myr-Akt3 cells; Mus musculus, read-out: CTG BaF3myr-Akt3, individual determinations, single replicates",4320 nM
same,"Log ratio EC50 [Akt] / EC50 [Akt], Akt3 / Akt2",Ba/F3^myr-Akt3 cells; [8],-0.93
same,EC50,"Ba/F3^myr-Akt3 cells; read-out: CTG BaF3myr-Akt3, individual determinations, single replicates",4620 nM and 4470 nM
